# Earlier results in patent US8450357B2, “Compositions comprising an aryl pyrazole and/or a formamidine, methods and uses thereof” (Merial Limited, priority 2008, dated 2013).
# Details: 14C radiolabeled drug, spot-on administration, beagle dogs; cited from earlier work
compound,measurement,value
"N#Cc1nn(-c2c(Cl)cc(C(F)(F)F)cc2Cl)c(N)c1[S+]([O-])C(F)(F)F (stereo not shown) [fipronil, 5-amino-3-cyano-1-(2,6-dichloro-4-trifluoromethylphenyl)-4-trifluoromethylsulfinylpyrazole]",time detected in the whole skin after treatment,up to 56 days
